From PubChem BioAssay AID504664 (Sanford-Burnham Center for Chemical Genomics, 2011)
Activity calls are given as the source filed them.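 Rule for the calls: active = IC50 mean at or below 20 µM; inactive = the rest.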

System: 697 NF-kB-Luc cells, PMA/ionomycin, luciferase luminescence, 16 h
Assay: inhibitors of PMA/ionomycin-driven NF-kB luciferase in 697 – 697 B cells, luminescence, set 2, T-cell antigen receptor NF-kB inhibitors, SAR follow-up (AID 504664)

SMILES | IC50
CC(C)c1ccc(C(NC(=O)C2CCCCC2)c2ccc3cccnc3c2O)cc1 (stereo not given) | > 79 µM (inactive)
CCCC(=O)NC(c1ccccc1OC)c1ccc2cccnc2c1O (stereo not given) | > 79 µM (inactive)
CNC(=O)CCc1nc(-c2ccccc2)no1 | > 79 µM (inactive)
CCCCC(=O)NC(c1ccc(N(CC)CC)cc1)c1ccc2cccnc2c1O (stereo not given) | > 79 µM (inactive)
CCCCC(=O)NC(c1ccc(Cl)cc1)c1ccc2cccnc2c1O (stereo not given) | > 79 µM (inactive)
CCCCC(=O)NC(c1ccc(C(C)C)cc1)c1ccc2cccnc2c1O (stereo not given) | > 79 µM (inactive)
CCCCC(=O)NC(c1ccccc1)c1ccc2cccnc2c1O (stereo not given) | > 79 µM (inactive)
CC(C)CC(=O)NC(c1ccc(C(C)C)cc1)c1ccc2cccnc2c1O (stereo not given) | > 79 µM (inactive)
CCCOc1ccc(C(=O)Nc2ccc(NC(=O)c3cc4ccccc4o3)cc2)cc1 | > 79 µM (inactive)
CC(C)(C)NC(=O)CCc1nc(-c2ccc(C(C)(C)C)cc2)no1 | 2.5 µM
CCCC(=O)NC(c1ccc(C)cc1)c1ccc2cccnc2c1O (stereo not given) | > 79 µM (inactive)
COc1cc(-c2nc3n(n2)C(c2ccc(F)cc2)C2=C(CCCC2=O)N3)cc(OC)c1OC (stereo not given) | 29 µM (inactive)
CC(C)(C)c1ccc(-c2noc(CCC(N)=O)n2)cc1 | 0.55 µM
Cc1ccc(C(NC(=O)C2CCCCC2)c2ccc3cccnc3c2O)cc1 (stereo not given) | > 79 µM (inactive)
CC(C)CC(=O)NC(c1ccccc1)c1ccc2cccnc2c1O (stereo not given) | > 79 µM (inactive)
COc1ccc(C(NC(=O)CC(C)C)c2ccc3cccnc3c2O)cc1OC (stereo not given) | > 79 µM (inactive)
CCNC(=O)CCc1nc(-c2ccc(C(C)(C)C)cc2)no1 | < 0.16 µM
COc1ccc(C(=O)Nc2ccc(NC(=O)c3cc4ccccc4o3)cc2)cc1Br | > 79 µM (inactive)
COc1cc2nc(NC(=O)c3ccccc3)sc(=O)c2cc1OC | 0.86 µM
CCC(=O)NC(c1ccc(N(C)C)cc1)c1ccc2cccnc2c1O (stereo not given) | > 79 µM (inactive)
CCN(CC)C(=O)CCc1nc(-c2ccc(C(C)(C)C)cc2)no1 | 60.1 µM (inactive)
COc1ccc(C(NC(=O)C(C)C)c2ccc3cccnc3c2O)cc1 (stereo not given) | > 79 µM (inactive)
CCCCC(=O)NC(c1ccc(C)cc1)c1ccc2cccnc2c1O (stereo not given) | > 79 µM (inactive)

SMILES | IC50
CCCC(=O)NC(c1ccccc1)c1ccc2cccnc2c1O (stereo not given) | > 79 µM (inactive)
CC(C)c1ccc(C(NC(=O)C2CCCCC2)c2cc([N+](=O)[O-])c3cccnc3c2O)cc1 (stereo not given) | > 79 µM (inactive)
CC(=O)NC(c1ccc(C(C)C)cc1)c1ccc2cccnc2c1O (stereo not given) | > 79 µM (inactive)
CCCCNC(=O)CCc1nc(-c2ccc(C(C)(C)C)cc2)no1 | 14.6 µM
CCCC(=O)NC(c1ccc(Cl)cc1)c1ccc2cccnc2c1O (stereo not given) | > 79 µM (inactive)
COc1ccc(C(NC(=O)Cc2ccccc2)c2ccc3cccnc3c2O)cc1OC (stereo not given) | > 79 µM (inactive)
Cc1ccc(C(NC(=O)C(C)C)c2ccc3cccnc3c2O)cc1 (stereo not given) | > 79 µM (inactive)
CCOc1ccc(-c2nc(CSCC(=O)NC3CC3)c(C)o2)cc1 | 0.21 µM
CCCC(=O)NC(c1ccccc1Cl)c1ccc2cccnc2c1O (stereo not given) | > 79 µM (inactive)
CCOc1ccc(-c2nc(CS(=O)(=O)CC(=O)NCc3ccc(F)cc3)c(C)o2)cc1 | > 79 µM (inactive)
COc1ccc(C(NC(=O)CCc2ccccc2)c2ccc3cccnc3c2O)cc1 (stereo not given) | > 79 µM (inactive)
CCOc1ccc(-c2nc(CSCC(=O)NCc3ccco3)c(C)o2)cc1 | 0.29 µM
CCCC(=O)NC(c1ccc(OC)cc1)c1ccc2cccnc2c1O (stereo not given) | > 79 µM (inactive)
CCCCC(=O)NC(c1ccc(N(C)C)cc1)c1ccc2cccnc2c1O (stereo not given) | > 79 µM (inactive)
CCCCC(=O)NC(c1ccc(OC)cc1)c1ccc2cccnc2c1O (stereo not given) | > 79 µM (inactive)
CNC(=O)CCc1nc(-c2ccc(C(C)(C)C)cc2)no1 | 0.03 µM
COc1ccccc1C(NC(C)=O)c1ccc2cccnc2c1O (stereo not given) | > 79 µM (inactive)
CCC(=O)NC(c1ccc(C)cc1)c1ccc2cccnc2c1O (stereo not given) | > 79 µM (inactive)
CCCCC(=O)NC(c1ccc(Cl)cc1Cl)c1ccc2cccnc2c1O (stereo not given) | > 79 µM (inactive)
CN(C)C(=O)CCc1nc(-c2ccc(C(C)(C)C)cc2)no1 | 6.56 µM
CCCC(=O)NC(c1ccc(C(C)C)cc1)c1ccc2cccnc2c1O (stereo not given) | > 79 µM (inactive)
CC(=O)NC(c1ccc2ccccc2c1)c1ccc2cccnc2c1O (stereo not given) | > 79 µM (inactive)

Second part, the compound after the results:

IC50 | SMILES
62.3 µM (inactive) | CC(=O)N1CCN(c2ccc(NC(=O)c3ccc([N+](=O)[O-])o3)cc2Cl)CC1
> 79 µM (inactive) | Cc1cc(NC(=O)c2ccc([N+](=O)[O-])o2)cc(-c2nc3ccccc3o2)c1O
61.7 µM (inactive) | O=C(Nc1ccc(N2CCCC2)c(Cl)c1)c1ccc([N+](=O)[O-])o1
31.9 µM (inactive) | Cc1cc(C)cc(NC(=O)c2ccc([N+](=O)[O-])o2)c1
> 79 µM (inactive) | Cc1ccc2nsnc2c1NC(=O)c1ccc([N+](=O)[O-])o1
> 79 µM (inactive) | COc1ccc(C(=O)Nc2ccc(NC(=O)c3cc4ccccc4o3)cc2)cc1OC
58.9 µM (inactive) | NS(=O)(=O)c1ccc(NC(=O)c2ccc([N+](=O)[O-])o2)cc1
> 79 µM (inactive) | O=C(Nc1ccc2oc(-c3ccncc3)nc2c1)c1ccc([N+](=O)[O-])o1
> 79 µM (inactive) | Cc1ccc(NC(=O)c2ccc([N+](=O)[O-])o2)cc1C(F)(F)F
> 79 µM (inactive) | CC(=O)N1CCc2cc(NC(=O)c3ccc([N+](=O)[O-])o3)ccc21
> 79 µM (inactive) | Cc1cccc(NC(=O)c2ccc([N+](=O)[O-])o2)c1C
> 79 µM (inactive) | COc1ccc(C(=O)Nc2ccc(NC(=O)c3cc4ccccc4o3)cc2)cc1[N+](=O)[O-]
> 79 µM (inactive) | CCOc1ccc(NC(=O)c2ccc([N+](=O)[O-])o2)cc1
> 79 µM (inactive) | COc1ccc(C)cc1NC(=O)c1ccc([N+](=O)[O-])o1
> 79 µM (inactive) | N#Cc1cccc(NC(=O)c2ccc([N+](=O)[O-])o2)c1
> 79 µM (inactive) | O=C(Nc1ccc2oc(-c3cccnc3)nc2c1)c1ccc([N+](=O)[O-])o1
> 79 µM (inactive) | COc1ccc(C(=O)Nc2ccc(NC(=O)c3cc4ccccc4o3)cc2)cc1Cl
> 79 µM (inactive) | Cc1ccc(NC(=O)c2ccc([N+](=O)[O-])o2)cc1C
> 79 µM (inactive) | O=C(Nc1cccc2ncccc12)c1ccc([N+](=O)[O-])o1
> 79 µM (inactive) | CCOc1ccc(C(=O)Nc2ccc(NC(=O)c3cc4ccccc4o3)cc2)cc1[N+](=O)[O-]
> 79 µM (inactive) | COc1cc(NC(=O)c2ccc3c(c2)OCO3)ccc1NC(=O)c1cc2ccccc2o1
12.9 µM | Cc1cc(NC(=O)c2ccc3c(c2)OCCO3)ccc1NC(=O)c1cc2ccccc2o1
> 79 µM (inactive) | Cc1cc(-c2nc3ncccc3o2)ccc1NC(=O)c1ccc([N+](=O)[O-])o1
4.57 µM | O=C(Nc1nc2c(Br)cc(Br)cc2c(=O)s1)c1ccco1
> 79 µM (inactive) | CN1CCN(c2ccccc2NC(=O)c2ccc([N+](=O)[O-])o2)CC1
> 79 µM (inactive) | O=C(Nc1ccc(-c2nc3ncccc3o2)cc1)c1ccc([N+](=O)[O-])o1
> 79 µM (inactive) | Cc1cc(NC(=O)c2ccc([N+](=O)[O-])o2)ccc1NC(=O)c1ccco1
> 79 µM (inactive) | Cc1ccc(C)c(NC(=O)c2ccc([N+](=O)[O-])o2)c1
43.7 µM (inactive) | CCN1CCN(c2c(Cl)cccc2NC(=O)c2ccc([N+](=O)[O-])o2)CC1
> 79 µM (inactive) | O=C(Nc1ccc2c(c1)CCO2)c1ccc([N+](=O)[O-])o1
